Experimental findings from ChEMBL document CHEMBL5512677, “Site-Specific Antimicrobial Activity of a Dual-Responsive Ciprofloxacin Prodrug” (J Med Chem, 2024) are described below.

Data set [1] has as its system Escherichia coli. In words: Antibacterial activity against Escherichia coli E38 assessed as reduction in bacterial growth pre-triggered with H2S for 1 hr followed by bacterial infection and measured after 16 hrs by spectrometer. The format is functional. Conditions: time 17 hrs.
The test system of data set [2] is Escherichia coli. In words: Antibacterial activity against Escherichia coli E38 assessed as reduction in bacterial survival rate pre-triggered with nitroreductase for 1 hr followed by bacterial infection and measured after 16 hrs by spectrometer. In kind it is functional, organism-based. Conditions: time 17.0 hrs.
The test system of data set [3] is Escherichia coli. The experiment in a line: Antibacterial activity against Escherichia coli HB101 assessed as reduction in bacterial growth by measuring minimum bactericidal concentration incubated for 16 to 20 hrs by serial dilution method. The conditions noted are these: time 16-20 hrs. In kind it is functional.
For data set [4], the system named is Escherichia coli. The experiment in a line: Antibacterial activity against Escherichia coli E38 assessed as reduction in bacterial survival rate pre-triggered with nitroreductase and NaSH for 1 hr followed by bacterial infection and measured after 16 hrs by spectrometer. In kind it is functional, organism-based. The conditions noted are these: time 17.0 hrs.

Data set [5] deals with Escherichia coli. The experiment in a line: Antibacterial activity against Escherichia coli E38 assessed as reduction in bacterial growth pre-triggered with nitroreductase for 1 hr followed by bacterial infection and measured after 16 hrs by spectrometer. The format is functional. Conditions: time 17 hrs.
For data set [6], the system named is Escherichia coli. In words: Antibacterial activity against Escherichia coli E38 assessed as reduction in bacterial growth by measuring minimum inhibitory concentration incubated for 16 to 20 hrs by serial dilution method. The format is functional. Conditions: time 16-20 hrs.
Data set [7] in a line: Prodrug activation in phosphate buffer saline assessed as Escherichia coli nitroreductase mediated ciprofloxacin metabolite formation measured upto 60 mins in presence of NADH by HPLC analysis. The format is ADME. The conditions noted are these: isolated protein, 1 h.
For data set [8], the system named is Escherichia coli. In words: Antibacterial activity against Escherichia coli E38 infected in female Swiss Webster mouse skin abscess model assessed as reduction in bacterial load at 20 mg/kg, sc measured after 3 days. In kind it is functional, organism-based. The conditions noted are these: time 3.0 day.
Data set [9] relates to Escherichia coli. In words: Antibacterial activity against Escherichia coli E38 harboring high NTR expression and H2S assessed as reduction in bacterial survival incubated for 16 hrs by spectrometric analysis. In kind it is functional, organism-based.
The test system of data set [10] is Escherichia coli. In words: Antibacterial activity against Escherichia coli E38 assessed as reduction in bacterial survival rate pre-triggered with NaSH for 1 hr followed by bacterial infection and measured after 16 hrs by spectrometer. The format is functional, organism-based. Conditions: time 17.0 hrs.
Data set [11] deals with Escherichia coli. The experiment in a line: Antibacterial activity against Escherichia coli E38 assessed as reduction in bacterial growth by measuring minimum bactericidal concentration incubated for 16 to 20 hrs by serial dilution method. In kind it is functional. The conditions noted are these: time 16-20 hrs.
In data set [12] the test system is Escherichia coli. In words: Antibacterial activity against Escherichia coli E38 assessed as reduction in bacterial growth pre-triggered with nitroreductase and H2S for 1 hr followed by bacterial infection and measured after 16 hrs by spectrometer. The format is functional. The conditions noted are these: time 17 hrs.
The subject of data set [13] is Escherichia coli. The experiment in a line: Antibacterial activity against Escherichia coli HB101 assessed as reduction in bacterial growth by measuring minimum inhibitory concentration incubated for 16 to 20 hrs by serial dilution method. The format is functional. Conditions: time 16-20 hrs.
The subject of data set [14] is Escherichia coli. The experiment in a line: Antibacterial activity against Escherichia coli E38 infected in female Swiss Webster mouse skin abscess model assessed as log reduction in bacterial load at 20 mg/kg, sc measured after 3 days relative to control. In kind it is functional. The conditions noted are these: time 3 day.
The test system of data set [15] is Escherichia coli. The experiment in a line: Antibacterial activity against Escherichia coli HB101 at 0.5 to 2 times MIC measured after 27 days by broth microdilution method. The format is functional, organism-based. The conditions noted are these: time 27.0 day.
Data set [16] is described as follows: Retention time of the compound by HPLC analysis. The format is physicochemical.
Data set [17] relates to Escherichia coli. In words: Antibacterial activity against Escherichia coli E38 assessed as reduction in bacterial survival rate by measuring fold reduction in MIC pre-triggered with H2S for 1 hr followed by bacterial infection and measured after 16 hrs by spectrometer. The format is functional. Conditions: time 17 hrs.
Data set [18] has as its system Staphylococcus aureus. The experiment in a line: Antibacterial activity against Staphylococcus aureus BB255 assessed as reduction in bacterial growth by measuring minimum bactericidal concentration incubated for 16 to 20 hrs by serial dilution method. The conditions noted are these: time 16-20 hrs. In kind it is functional.
For data set [19], the system named is Staphylococcus aureus. In words: Antibacterial activity against Staphylococcus aureus BB255 assessed as reduction in bacterial growth by measuring minimum inhibitory concentration incubated for 16 to 20 hrs by serial dilution method. The format is functional. Conditions: time 16-20 hrs.
Data set [20] has as its system Escherichia coli. In words: Antibacterial activity against Escherichia coli E38 assessed as reduction in bacterial survival rate by measuring fold reduction in MIC pre-triggered with nitroreductase for 1 hr followed by bacterial infection and measured after 16 hrs by spectrometer. The format is functional. Conditions: time 17 hrs.
Data set [21] in a line: Prodrug activation in phosphate buffer saline assessed as Escherichia coli nitroreductase mediated ciprofloxacin metabolite formation measured after 5 mins in presence of NADH by HPLC analysis. In kind it is ADME. Conditions: isolated protein.
Data set [22] concerns Escherichia coli. The experiment in a line: Antibacterial activity against Escherichia coli HB101 at 0.5 to 2 times MIC measured after 30 days by broth microdilution method. The format is functional, organism-based. Conditions: time 30.0 day.
Data set [23] is described as follows: Prodrug activation in phosphate buffer saline assessed as Escherichia coli nitroreductase mediated ciprofloxacin metabolite formation measured after 60 mins in presence of NADH by HPLC analysis. The format is ADME. Conditions: isolated protein, 1 h.
Data set [24] is described as follows: Prodrug activation in phosphate buffer saline assessed as Escherichia coli nitroreductase mediated intermediate formation measured after 60 mins in presence of NADH and 10 ug/ml of NTR by HPLC analysis. Conditions: isolated protein, 1 h.
Data set [25] is described as follows: Prodrug activation in phosphate buffer saline assessed as Escherichia coli nitroreductase mediated ciprofloxacin metabolite formation measured after 120 mins in presence of NADH by HPLC analysis. The format is ADME. Conditions: isolated protein, 2 h.
Data set [26] in a line: Prodrug activation in phosphate buffer saline assessed as Escherichia coli nitroreductase mediated ciprofloxacin metabolite formation by measuring retention time measured after 180 mins in presence of NADH by HPLC analysis. The format is ADME. The conditions noted are these: isolated protein, 3 h.

SMILES strings stand for the structures. Values after ≈ are worked out from the molar mass of the structure shown. Active and inactive are the calls of the source. The rule behind the calls is not given here.

On to `C[C@H](NC(=O)c1cn(C2CC2)c2cc(N3CCNCC3)c(F)cc2c1=O)c1ccc([N+](=O)[O-])cc1`, for which the minimum inhibitory concentration (MIC) in [1] is 4 µg/mL (≈ 8.34 µM); in data set [5], 4 µg/mL (≈ 8.34 µM); in data set [6] it was 4 µg/mL (≈ 8.34 µM); in data set [12], 4 µg/mL (≈ 8.34 µM); in data set [13], 1 µg/mL (≈ 2.09 µM). In addition, the outcome in [2], in [4], in data set [9] and in [10] was inactive. For the same compound, the results for the MBC in data set [3] and in [11] were 1 µg/mL (≈ 2.09 µM) and 4 µg/mL (≈ 8.34 µM), respectively. For the same compound, in data set [7], the Drug metabolism result is given as “Metabolite_Notdetected”. In data set [8], the result was Active.

Take `[N-]=[N+]=Nc1ccc(COC(=O)N2CCN(c3cc4c(cc3F)c(=O)c(C(=O)O)cn4C3CC3)CC2)cc1`: the MIC amounted to 0.063 µg/mL (≈ 0.124 µM) in data set [1], 1 µg/mL (≈ 1.97 µM) in data set [6], 4 µg/mL (≈ 7.9 µM) in data set [19] and 0.5 µg/mL (≈ 0.987 µM) in data set [13]. In addition, the MBC in data set [3] is 0.5 µg/mL (≈ 0.987 µM); in [18], > 128 µg/mL; in data set [11], 2 µg/mL (≈ 3.95 µM). In addition, the “log(activity)” value in data set [14] turned out to be 2. Besides, the outcome in data set [15] and in data set [9] was inactive. Moreover, the Retention_time in data set [16] is 12.4 min. For the same compound, the “fold change (FC)” value in data set [17] amounted to 16. Moreover, in [10], the outcome was Active.

As for `O=C(OCc1ccc([N+](=O)[O-])cc1)c1cn(C2CC2)c2cc(N3CCNCC3)c(F)cc2c1=O`, the “fold change (FC)” value in [20] was 16. Further, the result in data set [2] and in [22] was Active. Further, the MBC in data set [3] was 1 µg/mL (≈ 2.14 µM); in data set [18] it was > 128 µg/mL; in data set [11] it was 2 µg/mL (≈ 4.29 µM). The “log(activity)” value in data set [14] was 2. The MIC came out at 0.063 µg/mL (≈ 0.135 µM) in data set [5], 1 µg/mL (≈ 2.14 µM) in [6], 16 µg/mL (≈ 34.3 µM) in data set [19] and 0.5 µg/mL (≈ 1.07 µM) in [13]. The Drug metabolism entry in data set [7] is “Metabolite_Detected”; in [21] it was “Metabolite_Detected”; in data set [23] it was “Metabolite_Notdetected”; in [24], “Metabolite_Notdetected”. Also, in data set [16], the Retention_time came to 4.7 min. Also, the result in data set [9] was inactive.

On to `O=C(O)c1cn(C2CC2)c2cc(N3CCNCC3)c(F)cc2c1=O` [CIPROFLOXACIN], for which the outcome in data set [2] was Active. The figures for the MBC in [3], in [18] and in [11] were 0.004 µg/mL (≈ 0.0121 µM), 0.5 µg/mL (≈ 1.51 µM) and 0.015 µg/mL (≈ 0.0453 µM), respectively. Moreover, in data set [19], the MIC came to 0.25 µg/mL (≈ 0.754 µM).

On to `[N-]=[N+]=Nc1ccc(COC(=O)N2CCN(c3cc4c(cc3F)c(=O)c(C(=O)OCc3ccc([N+](=O)[O-])cc3)cn4C3CC3)CC2)cc1`, for which the MIC in data set [1] was 2 µg/mL (≈ 3.12 µM); in [5], > 16 µg/mL; in data set [6], > 16 µg/mL; in [19], > 128 µg/mL; in [12] it was 0.25 µg/mL (≈ 0.39 µM); in data set [13] it was 32 µg/mL (≈ 49.9 µM). Besides, the result in [2] and in [9] was inactive. Also, the MBC was 32 µg/mL (≈ 49.9 µM) in data set [3], > 128 µg/mL in data set [18] and > 128 µg/mL in data set [11]. Further, the Drug metabolism entry in [25] was “Metabolite_Detected”. Further, the “log(activity)” value in data set [14] is given as 2. Moreover, the outcome in data set [4] and in data set [22] was Active. The Retention_time in [26] came out at 2.2 min; in [16] it was 15.2 min.
